Measurements: US9018438B2, “Screening method for anticancer drugs” (Kyoto University, priority 2010, dated 2015)
Structures can show the parent of a compound that is named as a salt. Where two headings read alike, the source gives them in different places.

Experiments:
Reck gene promoter = test: SEAP assay in YM3 cells (Reck gene promoter-reporter system); format: cell-based, mouse
Description: A 4.1-kb upstream region of a mouse Reck gene (Gene ID: 53614, Chromosome 4—NC—000070.5 43884251-43888453) was inserted into a pSEAP2-Basic vector (Clontech) to give a pSEAP-RP4.1 plasmid. […] Biochem Biophys Res Commun 1999; 264: 668-675.). […] TF323-C3 cells can be distributed from one of the inventors Makoto Noda.
YM3 cells were seeded onto 96-well plates at 1×10^4 cells in 100 μl per well and incubation was performed for 5 hours to allow the cells to settle. A compound solution (500 μM, 1 μl) was added to the medium. The employed test compounds were those in the chemical library Prestwick Chemical Library (Prestwick Chemical, Illkirch, France), which is composed of 880 structurally diverse known bioactive compounds, dissolved in nano-pure grade dimethyl sulfoxide (DMSO; Wako). […] A vehicle (DMSO, 1 μl) alone as a negative control and hypothemycin (HPM, 1 mg/ml) as a positive control were added to two wells per plate. Each sample was tested on two different plates (duplicate samples).
After incubation for 48 hours, a portion (10 μl) of the culture supernatant was sampled, incubated at 65° C. (heat treatment) for 30 minutes, and then subjected to the SEAP assay using Great EscAPe™ SEAP Chemiluminescence Detection Kit (Takara Bio). The remaining medium and the cells were subjected to the cell-counting assay using SF reagent. That is, SF reagent (Nacalai) (10 μl per well) was added to the medium, the plates were incubated for 3 hours in a CO2 incubator, and the absorbance at 450 nm (A450) was measured to obtain relative cell numbers. For the SEAP activity data, “SEAP measured value/A450 value” was defined as “SEAP activity per cell”, and the value obtained by dividing “SEAP activity per cell” of each compound by “SEAP activity per cell” of the negative control was defined as “relative SEAP activity”. The mean “relative SEAP activity” of the duplicate samples and the standard error thereof were determined. For the cell number data, the value obtained by dividing the SF measured value of each compound by the SF measured value of the negative control was defined as “relative cell number”, and the mean value of the duplicate samples and the standard error thereof were determined. Samples with a large standard error were tested again. In the experiment, duplicate samples were prepared each in a regular liquid medium and in a liquid medium containing Dox (2 μg/ml), and four mean values (the relative cell number and the relative SEAP activity in the Ras-ON state and the relative cell number and the relative SEAP activity in the Ras-OFF state) were obtained (see FIG. 3).

RM72 cells = format: in vivo; conditions: mouse, in vivo
Description: RM72 cells (3×10^6 cells) suspended in 0.1 ml of PBS were subcutaneously injected into the right posterior flank of Balb/c nude mice (6 weeks old, male, Charles River). […]. After 14-day treatment, the mice were anesthetized and their bioluminescence was recorded by the method described below. After the whole-body recording of the bioluminescence, the lung was resected, washed with PBS (−), and subjected to bioluminescence recording. The tumor size (length×width×height) was measured once a week. Statistical significance was assessed by Student's t-test.
Mice under anesthesia were intraperitoneally injected with 75 mg/kg of d-luciferin dissolved in PBS (−). Bioluminescence images were acquired with IVIS ImagingSystem (Xenogen) at 5 minutes after the injection (Wang S, El-Deiry W S. Requirement of p53 targets in chemosensitization of colonic carcinoma to death ligand therapy. Proc Natl Acad Sci USA 2003; 100: 15095-15100; Minn A J, Kang Y, Serganova I, Gupta G P, Giri D D, Doubrovin M, Ponomarev V, Gerald W L, Blasberg R, Massague J. Distinct organ-specific metastatic potential of individual breast cancer cells and primary tumors. J Clin Invest 2005; 115: 44-55). The photons emitted from the whole bodies or the isolated organs were collected for a period of 60 seconds and integrated. The images were analyzed using Living Image software (Xenogen).
The anti-tumorigenic and anti-metastatic activities of Pyt, Hr, Gra and Lyc were investigated with the same protocol as in Example 9. The experiment was conducted in two batches: Experiment 1 for three groups of a Pyt group, a Hr group and a vehicle group and Experiment 2 for three groups of a Gra group, a Lyc group and a vehicle group. The doses of the test compounds were set at two different quantities considered to be appropriate based on literature (see Tables 3 and 4).

[1] = in the presence of Dox (HRAS12V-off)
[2] = relative SEAP activity at optimal conc., YM3 cells, regular medium (Ras-ON)

Compound	Activity in Dox (Reck gene promoter; [1])	Induction (fold) (Reck gene promoter; [2])	also measured
CCCSc1ccc2nc(NC(=O)OC)[nH]c2c1 [Albendazole]			Activity in Dox (Reck gene promoter): ± (key: +: more than 1.9-fold; ±: between 1.9 and 1.5-fold; −: less than 1.5-fold); Induction (fold) (Reck gene promoter): 2.89 fold
CC[C@@]1(O)C(=O)OCc2c1cc1n(c2=O)Cc2cc3ccccc3nc2-1 [Camptothecine (S, +)]	+ (more than 1.9-fold)	7.71 fold	Optimal conc. (Reck gene promoter): 5.00 µM
CC[C@H]1CN2CCc3cc(OC)c(OC)cc3[C@@H]2C[C@@H]1C[C@H]1NCCc2cc(O)c(OC)cc21.Cl.Cl.O.O.O.O.O.O.O [Cephaeline dihydrochloride heptahydrate]	+ (more than 1.9-fold)	5.61 fold	Optimal conc. (Reck gene promoter): 5.00 µM
C[C@@H]1C[C@@H]([C@H](O)CC2CC(=O)NC(=O)C2)C(=O)[C@@H](C)C1 [Cycloheximide]	± (between 1.9 and 1.5-fold)	2.29 fold	
COc1cccc2c1C(=O)c1c(O)c3c(c(O)c1C2=O)C[C@@](O)(C(C)=O)C[C@@H]3O[C@H]1C[C@H](N)[C@H](O)[C@H](C)O1 [Daunorubicin hydrochloride]	+ (more than 1.9-fold)	6.22 fold	
CN(C)[C@@H]1C(O)=C(C(N)=O)C(=O)[C@@]2(O)C(O)=C3C(=O)c4c(O)ccc(Cl)c4[C@@H](O)[C@H]3C[C@@H]12 [Demeclocycline hydrochloride]	− (less than 1.5-fold)	2.57 fold	
CCOC(=O)NC1=C(N2CC2)C(=O)C(NC(=O)OCC)=C(N2CC2)C1=O [Diaziquone]	± (between 1.9 and 1.5-fold)	3.54 fold	
CCN(CC)C(=S)SSC(=S)N(CC)CC [Disulfiram]	+ (more than 1.9-fold)	18.0 fold	
C[C@H]1c2cccc(O)c2C(=O)C2=C(O)[C@]3(O)C(=O)C(C(N)=O)=C(O)[C@@H](N(C)C)[C@@H]3[C@@H](O)[C@@H]21 [Doxycycline hydrochloride]	− (less than 1.5-fold)	1.96 fold	
CC[C@H]1CN2CCc3cc(OC)c(OC)cc3[C@@H]2C[C@@H]1C[C@H]1NCCc2cc(OC)c(OC)cc21 [Emetine dihydrochloride]	− (less than 1.5-fold)	3.79 fold	
COc1cc([C@@H]2c3cc4c(cc3[C@@H](O[C@@H]3O[C@@H]5CO[C@@H](C)O[C@H]5[C@H](O)[C@H]3O)[C@H]3COC(=O)[C@H]23)OCO4)cc(OC)c1O [Etoposide]	+ (more than 1.9-fold)	1.99 fold	
COc1cc(O)c2c(c1)[C@H]1O[C@@H]1C[C@H](O)[C@H](O)C(=O)/C=C\C[C@H](C)OC2=O [HPM, hypothemycin]			SEAP up-regulation in YM3 cells (Reck gene promoter; 1 μg/ml): up-regulated; up-regulation of SEAP activity (Reck gene promoter; positive control, typical): about twofold
Clc1cc(Cl)c(OCC#CI)cc1Cl [Haloprogin]	+ (more than 1.9-fold)	3.48 fold	
CCN(CC)CCNc1ccc(CO)c2sc3ccccc3c(=O)c12 [Hycanthone]	+ (more than 1.9-fold)	2.02 fold	
CC1=CC(=O)c2ccccc2C1=O [Menadione]	+ (more than 1.9-fold)	3.21 fold	
CN(Cc1cnc2nc(N)nc(N)c2n1)c1ccc(C(=O)N[C@@H](CCC(=O)O)C(=O)O)cc1 [Methotrexate]	± (between 1.9 and 1.5-fold)	3.42 fold	
CN(C)c1ccc(O)c2c1C[C@H]1C[C@H]3[C@H](N(C)C)C(O)=C(C(N)=O)C(=O)[C@@]3(O)C(O)=C1C2=O [Minocycline hydrochloride]	− (less than 1.5-fold)	2.54 fold	
O=C1c2c(O)ccc(O)c2C(=O)c2c(NCCNCCO)ccc(NCCNCCO)c21 [Mitoxantrone dihydrochloride]	+ (more than 1.9-fold)	3.60 fold	
CC(=O)O[C@H]1C(=O)[C@@]2(C)[C@H]([C@H](OC(=O)c3ccccc3)[C@]3(O)C[C@H](OC(=O)[C@H](O)[C@@H](NC(=O)c4ccccc4)c4ccccc4)C(C)=C1C3(C)C)[C@]1(OC(C)=O)CO[C@@H]1C[C@@H]2O [Paclitaxel]	± (between 1.9 and 1.5-fold)	3.32 fold	
C1CCC(C(CC2CCCCN2)C2CCCCC2)CC1 (stereo not drawn) [Perhexiline maleate]	+ (more than 1.9-fold)	2.28 fold	
COc1cc(/C=C/C(=O)N2CCC=CC2=O)cc(OC)c1OC [Piperlongumine]	− (less than 1.5-fold)	2.06 fold	Optimal conc. (Reck gene promoter): 5.00 µM
COc1cc([C@@H]2c3cc4c(cc3[C@H](O)[C@H]3COC(=O)[C@H]23)OCO4)cc(OC)c1OC [Podophyllotoxin]	± (between 1.9 and 1.5-fold)	2.48 fold	
CCc1nc(N)nc(N)c1-c1ccc(Cl)cc1 [Pyrimethamine]	± (between 1.9 and 1.5-fold)	2.33 fold	
[O-][n+]1ccccc1S [Pyrithione sodium salt]			Lung metastasis Mean (RM72 cells; 15 mg/kg/day): 11.6; Tumor Mean (RM72 cells; 15 mg/kg/day): 52.2; Lung metastasis Mean (RM72 cells; 50 mg/kg/day): 84.2; Tumor Mean (RM72 cells; 50 mg/kg/day): 74.4; Activity in Dox (Reck gene promoter): + (key: +: more than 1.9-fold; ±: between 1.9 and 1.5-fold; −: less than 1.5-fold); Induction (fold) (Reck gene promoter): 17.5 fold
O=C(c1ccc(OCCN2CCCCC2)cc1)c1c(-c2ccc(O)cc2)sc2cc(O)ccc12 [Raloxifene hydrochloride]	− (less than 1.5-fold)	2.17 fold	
Nc1nc(N)c2nc(-c3ccccc3)c(N)nc2n1 [Triamterene]	− (less than 1.5-fold)	2.25 fold	
CN(C)CCCN1c2ccccc2Sc2ccc(C(F)(F)F)cc21 [Triflupromazine hydrochloride]			Activity in Dox (Reck gene promoter): − (key: +: more than 1.9-fold; ±: between 1.9 and 1.5-fold; −: less than 1.5-fold)
Thimerosal			Activity in Dox (Reck gene promoter): + (key: +: more than 1.9-fold; ±: between 1.9 and 1.5-fold; −: less than 1.5-fold); Induction (fold) (Reck gene promoter): 9.33 fold; Optimal conc. (Reck gene promoter): 5.00 µM
